Reference: ChEMBL document CHEMBL1201862, “PubChem BioAssay data set” (2004)
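A five-concentration, 48-hour dose response in 96-well plates underlies each endpoint, interpolated linearly between surrounding concentrations. GI50 = concentration required for 50% inhibition of growth.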 Active and inactive are the calls of the source. No stated cut-off is given here; in the data, active = GI50 up to about 1.1 µM and inactive = higher.

Assays:
Assay in all cases: NCI-60 cell line screen, 48 h
IGROV-1 = test system: IGROV-1
MOLT-4 = test system: MOLT-4
UACC-62 = test system: UACC-62
HOP-62 = test system: HOP-62
SF-295 = test system: SF-295
786-0 = test system: 786-0
SF-539 = test system: SF-539
CAKI-1 = test system: CAKI-1
LXFL 529 = test system: LXFL 529
NCI-H23 = test system: NCI-H23
SNB-75 = test system: SNB-75
M19-MEL = test system: M19-MEL
M14 = test system: M14
SK-OV-3 = test system: SK-OV-3
HCC 2998 = test system: HCC 2998
CCRF-CEM = test system: CCRF-CEM
RPMI-8226 = test system: RPMI-8226
HCT-15 = test system: HCT-15
EKVX = test system: EKVX
HOP-18 = test system: HOP-18
HT-29 = test system: HT-29
XF498 = test system: XF498
TK-10 = test system: TK-10
UACC-257 = test system: UACC-257
U-251 = test system: U-251
SK-MEL-5 = test system: SK-MEL-5
OVCAR-4 = test system: OVCAR-4
SK-MEL-28 = test system: SK-MEL-28
SK-MEL-2 = test system: SK-MEL-2
RXF 631 = test system: RXF 631
HL-60 = test system: HL-60
A549 = test system: A549
A498 = test system: A498
RXF 393 = test system: RXF 393
HCT-116 = test system: HCT-116
NCI-H460 = test system: NCI-H460
LOX IMVI = test system: LOX IMVI
OVCAR-8 = test system: OVCAR-8
DLD-1 = test system: DLD-1
OVCAR-5 = test system: OVCAR-5
SN12C = test system: SN12C
KM-20L2 = test system: KM-20L2
ACHN = test system: ACHN
K562 = test system: K562
KM12 = test system: KM12
NCI-H226 = test system: NCI-H226
SNB-78 = test system: SNB-78
HOP-92 = test system: HOP-92
SNB-19 = test system: SNB-19
SF-268 = test system: SF-268
Malme-3M = test system: Malme-3M
SW-620 = test system: SW-620
SR = test system: SR
DMS-273 = test system: DMS-273
OVCAR-3 = test system: OVCAR-3
NCI-H522 = test system: NCI-H522
UO-31 = test system: UO-31
DMS-114 = test system: DMS-114
COLO 205 = test system: COLO 205

NC(CCCNc1ccc(O)cc1)C(=O)O (stereo not given)
GI50 (IGROV-1): 26.4 µM (inactive)
GI50 (MOLT-4): 25.4 µM (inactive)
GI50 (UACC-62): 18.5 µM (inactive)
GI50 (HOP-62): > 80.2 µM (inactive)
GI50 (SF-295): > 100 µM (inactive)
GI50 (786-0): 17.2 µM (inactive)
GI50 (SF-539): 35.2 µM (inactive)
GI50 (CAKI-1): 48.2 µM (inactive)
GI50 (LXFL 529): 18.3 µM (inactive)
GI50 (NCI-H23): 97.9 µM (inactive)
GI50 (SNB-75): 42.5 µM (inactive)
GI50 (M19-MEL): 18.2 µM (inactive)
GI50 (M14): 31.8 µM (inactive)
GI50 (SK-OV-3): > 100 µM (inactive)
GI50 (HCC 2998): 40.6 µM (inactive)
GI50 (CCRF-CEM): 23.4 µM (inactive)
GI50 (RPMI-8226): 24.4 µM (inactive)
GI50 (HCT-15): 30.1 µM
GI50 (EKVX): 38.8 µM (inactive)
GI50 (HOP-18): > 76.4 µM (inactive)
GI50 (HT-29): 41.7 µM (inactive)
GI50 (XF498): 22.5 µM (inactive)
GI50 (TK-10): > 63.2 µM (inactive)
GI50 (UACC-257): 27.8 µM (inactive)
GI50 (U-251): > 100 µM (inactive)
GI50 (SK-MEL-5): 25.8 µM (inactive)
GI50 (OVCAR-4): 17.6 µM (inactive)
GI50 (SK-MEL-28): 42.6 µM (inactive)
GI50 (SK-MEL-2): 31 µM (inactive)
GI50 (RXF 631): 54.3 µM (inactive)
GI50 (HL-60): 19.8 µM (inactive)
GI50 (A549): > 94.2 µM (inactive)
GI50 (A498): 41.3 µM (inactive)
GI50 (RXF 393): 26.1 µM (inactive)
GI50 (HCT-116): 18.2 µM (inactive)
GI50 (NCI-H460): > 59.6 µM (inactive)
GI50 (LOX IMVI): 18.5 µM (inactive)
GI50 (OVCAR-8): 33.7 µM (inactive)
GI50 (DLD-1): 20.4 µM (inactive)
GI50 (OVCAR-5): > 100 µM (inactive)
GI50 (SN12C): > 47.5 µM (inactive)
GI50 (KM-20L2): > 100 µM (inactive)
GI50 (ACHN): 26 µM (inactive)
GI50 (K562): 35.4 µM (inactive)
GI50 (KM12): 49.2 µM (inactive)
GI50 (NCI-H226): > 100 µM (inactive)
GI50 (SNB-78): > 83.6 µM (inactive)
GI50 (HOP-92): 26.5 µM (inactive)
GI50 (SNB-19): > 100 µM (inactive)
GI50 (SF-268): 42.8 µM (inactive)
GI50 (Malme-3M): > 56.1 µM (inactive)
GI50 (SW-620): 21.3 µM (inactive)
GI50 (SR): 25.3 µM (inactive)
GI50 (DMS-273): > 100 µM (inactive)
GI50 (OVCAR-3): 18.1 µM (inactive)
GI50 (NCI-H522): 61.4 µM (inactive)
GI50 (UO-31): > 60 µM (inactive)
GI50 (DMS-114): 24.9 µM (inactive)
GI50 (COLO 205): > 54.2 µM (inactive)

C[n+]1c2n(c3nc(N)[nH]c(=O)c31)C1OC(C2)C(O)C1O (stereo not given)
GI50 (IGROV-1): > 100 µM (inactive)
GI50 (MOLT-4): > 100 µM (inactive)
GI50 (UACC-62): > 100 µM (inactive)
GI50 (HOP-62): > 100 µM (inactive)
GI50 (SF-295): > 100 µM (inactive)
GI50 (786-0): > 100 µM (inactive)
GI50 (SF-539): > 100 µM (inactive)
GI50 (CAKI-1): > 100 µM (inactive)
GI50 (LXFL 529): > 100 µM (inactive)
GI50 (NCI-H23): > 100 µM (inactive)
GI50 (SNB-75): > 100 µM (inactive)
GI50 (M19-MEL): > 100 µM (inactive)
GI50 (M14): > 100 µM (inactive)
GI50 (SK-OV-3): > 100 µM (inactive)
GI50 (HCC 2998): > 100 µM (inactive)
GI50 (CCRF-CEM): > 100 µM (inactive)
GI50 (EKVX): > 100 µM (inactive)
GI50 (HOP-18): > 100 µM (inactive)
GI50 (HT-29): > 100 µM (inactive)
GI50 (XF498): > 100 µM (inactive)
GI50 (TK-10): > 100 µM (inactive)
GI50 (UACC-257): > 100 µM (inactive)
GI50 (U-251): > 100 µM (inactive)
GI50 (SK-MEL-5): > 100 µM (inactive)
GI50 (OVCAR-4): > 100 µM (inactive)
GI50 (SK-MEL-28): > 100 µM (inactive)
GI50 (SK-MEL-2): > 100 µM (inactive)
GI50 (RXF 631): > 100 µM (inactive)
GI50 (HL-60): > 100 µM (inactive)
GI50 (A549): > 100 µM (inactive)
GI50 (A498): > 100 µM (inactive)
GI50 (RXF 393): > 100 µM (inactive)
GI50 (HCT-116): > 100 µM (inactive)
GI50 (LOX IMVI): > 100 µM (inactive)
GI50 (OVCAR-8): > 100 µM (inactive)
GI50 (DLD-1): > 100 µM (inactive)
GI50 (OVCAR-5): > 100 µM (inactive)
GI50 (SN12C): > 100 µM (inactive)
GI50 (KM-20L2): > 100 µM (inactive)
GI50 (ACHN): > 100 µM (inactive)
GI50 (K562): > 100 µM (inactive)
GI50 (KM12): > 100 µM (inactive)
GI50 (NCI-H226): > 100 µM (inactive)
GI50 (SNB-78): > 100 µM (inactive)
GI50 (HOP-92): > 100 µM (inactive)
GI50 (SNB-19): > 100 µM (inactive)
GI50 (SF-268): > 100 µM (inactive)
GI50 (Malme-3M): > 100 µM (inactive)
GI50 (SW-620): > 100 µM (inactive)
GI50 (SR): > 100 µM (inactive)
GI50 (DMS-273): > 100 µM (inactive)
GI50 (OVCAR-3): > 100 µM (inactive)
GI50 (NCI-H522): > 100 µM (inactive)
GI50 (UO-31): > 100 µM (inactive)
GI50 (DMS-114): > 100 µM (inactive)
GI50 (COLO 205): > 100 µM (inactive)
